Several values for one entry are separate records, joined by “and”; a condition that tells them apart may be missing. Equal entries are not always repeated.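 Assay format: 96-well plates, 48-hour exposure. Here, GI50 denotes the concentration required for 50% inhibition of growth. TGI: total growth inhibition.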
Experiments:
Assay in all cases: DTP human tumour cell line panel, 48 h
[1] = tested on: IGROV1 ovarian
[2] = tested on: T-47D breast
[3] = tested on: SNB-75 CNS
[4] = tested on: OVCAR-8 ovarian
[5] = tested on: COLO 205 colon
[6] = tested on: NCI-H460 lung
[7] = tested on: SW-620 colon
[8] = tested on: KM12 colon
[9] = tested on: OVCAR-4 ovarian
[10] = tested on: SK-MEL-2 melanoma

Compound	TGI [1] [µM]	TGI [2] [µM]	TGI [3] [µM]	TGI [4] [µM]	TGI [5] [µM]	TGI [6] [µM]	TGI [7] [µM]	TGI [8] [µM]	TGI [9] [µM]	TGI [10] [µM]	GI50 [2]	GI50 [3]	GI50 [9]	GI50 [8]	GI50 [4] [µM]	GI50 [7] [µM]
CC(=N/NC(=S)N1CCCCCC1)/C(C)=N\NC(=S)N1CCCCCC1	8.44	3.54	10.9	> 100	38.5	31.4	5.23	17.9	–	–	–	–	–	–	–	–
O=C(O)c1cc(N=Nc2ccc([N+](=O)[O-])cc2)ccc1O	> 100	> 100	> 100	> 100	> 100	83	> 100	> 100	80.4	78.8	–	–	–	–	–	–
COc1ccc(/C=C2/N=C(N/N=C\C(O)C(O)C(O)CO)NC2=O)cc1 (stereo unspecified)	> 100	> 100	> 100	> 100	> 100	> 100	> 100	> 100	> 100	> 100	87.7 µM and 33.2 µM	> 100 µM and 41.4 µM	40.9 µM and > 100 µM	> 100 µM and 26.9 µM	–	–
COc1ccc2c(c1)CC[C@@H]1[C@@H]2CC[C@]2(C)/C(=N/OCCN3CCCC3)CC[C@@H]12	18.4	9.64	9.49	12.4	3.06	3.08	3.68	6.31	24.3	4.2	–	–	–	–	–	–
C/C=C1\CC(C(=O)OCC)CCCCCCC1=O (stereo unspecified)	> 100	> 100	> 100	> 100	> 100	–	> 100	> 100	> 100	> 100	–	–	–	–	–	–
N/C(=N\N=C\c1cc2ccccc2s1)c1cnccn1	> 100	> 100	79.3	> 100	> 100	> 100	> 100	> 100	> 100	> 100	–	–	–	–	–	–
Cc1cc(OCc2nc(N)nc(N)c2-c2ccc(Cl)c(Cl)c2)ccc1[N+](=O)[O-]	> 41.1	> 51.5	13.7	34	18.9	4.88	> 63.6	33.8	39.1	15.1	–	–	–	–	–	–
Cc1nc2cn3c(c2c(=O)[nH]1)CCCCC3	> 100	> 100	> 100	> 100	> 100	> 100	> 100	> 100	> 100	> 100	–	–	–	–	–	–
Cc1c(C)c2c(c(C)c1OC(=O)CCC(=O)[O-])CCC(C)(CCCCCCCCCCC[P+](c1ccccc1)(c1ccccc1)c1ccccc1)O2 (stereo unspecified)	–	0.966	0.49	0.974	–	–	0.842	0.705	0.891	–	0.124 µM	0.123 µM	0.158 µM	0.177 µM	0.175	0.174
O=S(=O)(O)c1ccc2c(N=Nc3cccc4ccccc34)c(O)ccc2c1	> 100	> 100	> 100	> 100	> 100	–	> 100	> 100	> 100	> 100	–	–	–	–	–	–
Cc1ccc(C2(O)c3ccccc3C(=O)N(C)C2(O)c2ccc(C)cc2)cc1 (stereo unspecified)	> 100	> 100	–	90.9	> 100	75.8	> 100	> 100	50.9	> 100	–	–	–	–	–	–
COc1ccccc1C1C2=C(COC2=O)Oc2cc3c(cc21)OCO3 (stereo unspecified)	> 100	> 100	21.9	> 56.2	14.2	> 100	> 100	> 100	> 100	99.7	–	–	–	–	–	–
O=Cc1c2c(cc3c1CC1(C3)Cc3cc4c(c(C=O)c3C1)CCCC4)CCCC2	> 31.6	> 31.6	> 100	> 31.6	> 31.6	> 100	> 100	> 31.6	> 31.6	–	–	–	–	–	–	–
Cc1cccc2c(N)c3cccc(C(=O)NCC[N+](C)(C)Cc4ccc([N+](=O)[O-])n4C)c3nc12	58.4	> 85.9	43.2	64.1	66.7	> 46.6	> 82.2	63.4	> 74.7	> 100	–	–	–	–	–	–
COc1ccccc1-n1cnc2c1NC(C)(C)N=C2C(N)=O	> 100	> 100	> 100	> 100	> 100	> 100	> 100	> 100	> 100	> 100	–	–	–	–	–	–
CC(=O)Nc1ccc(NC(=O)CC(=O)Nc2ccc(NC(C)=O)cc2)cc1	> 100	> 100	–	> 100	> 100	> 100	> 100	> 100	> 100	–	–	–	–	–	–	–
O=c1oc2ccc([N+](=O)[O-])cc2nc1/C=C(\O)c1ccccc1	> 100	> 100	> 100	> 100	> 100	> 100	> 100	> 100	> 100	98.2	–	–	–	–	–	–
COC(=O)[C@H](CNC(=O)/C=C/c1ccc(OC(C)=O)c(OC(C)=O)c1)NC(=O)/C=C/c1ccc(OC(C)=O)c(OC(C)=O)c1	> 100	> 100	> 100	> 100	> 100	> 100	> 100	> 100	> 100	> 100	–	–	–	–	–	–
Cc1cc(C)cc(Nc2nnc3n2S(=O)(=O)c2cc(C)c(Cl)cc2S3)c1	80.6	> 100	> 100	> 100	> 100	24.8	21.1	33.2	> 100	15.8	–	–	–	–	–	–
N=c1c2sc3nc4ccccc4n3c2ncn1Cc1ccccc1	> 100	> 100	> 100	> 100	> 100	–	> 100	> 100	> 100	> 100	–	–	–	–	–	–
OC1(c2ccccc2)CC2CCC(C1)N2CCCC(O)(c1ccccc1)c1ccccc1 (stereo unspecified)	29.9	50.3	23.8	36.1	30.8	5.13	22.4	30.3	> 100	37.6	–	–	–	–	–	–

Compound	TGI [1] [µM]	TGI [2] [µM]	TGI [3] [µM]	TGI [4] [µM]	TGI [5] [µM]	TGI [6] [µM]	TGI [7] [µM]	TGI [8] [µM]	TGI [9] [µM]	TGI [10] [µM]	GI50 [2]	GI50 [3]	GI50 [9]	GI50 [8]	GI50 [4] [µM]	GI50 [7] [µM]
CN(C(=O)[C@H](NC(=O)OCc1ccccc1)c1ccccc1)C1CCCCC1N1CCCC1 (stereo partly specified)	> 100	> 100	> 100	> 100	> 100	> 100	> 100	> 100	> 100	> 100	–	–	–	–	–	–
C=C1C(=O)OC2C1CCC(=C)C1CC(O)C(=C)C12 (stereo unspecified)	28	42.8	37.3	60.4	6.89	36.6	43.6	30.4	33.7	32.7	–	–	–	–	–	–
C=CCn1c(-c2cc(C(C)(C)C)c(O)c(C(C)(C)C)c2)cs/c1=N\C(P(=O)(O)O)P(=O)(O)O	> 100	> 100	> 100	> 100	> 100	> 100	> 100	> 100	> 100	> 100	–	–	–	–	–	–
COc1ccccc1N1CCN(CCCCNC(=O)c2ccc([N+](=O)[O-])o2)CC1	28.9	40.3	–	45.6	6.79	12.5	> 66	20.3	28.9	19.4	–	–	–	–	–	–
CC12NC(=C(C#N)C#N)C(C#N)=C3NC(N)=C(C#N)C(=C31)Oc1ccccc12 (stereo unspecified)	> 100	> 100	> 100	> 100	> 100	> 100	> 100	> 100	> 100	> 80.9	–	–	–	–	–	–
CC1(CO)C(O)CCC2(C)C1CCC1CC3CC12CCC3(O)CO (stereo unspecified)	> 100	–	> 100	> 100	> 100	> 100	> 100	> 100	> 100	> 100	–	–	–	–	–	–
Cc1sc2c(c1C)C(=O)c1cccn1-2	> 100	> 100	> 100	> 100	> 100	> 100	> 100	> 100	> 100	> 100	–	–	–	–	–	–
c1ccc2c(c1)nnn2CNc1ccc(N2CCCCC2)cc1	> 100	–	> 100	> 100	> 100	> 100	> 100	> 100	> 100	> 100	–	–	–	–	–	–
CC(=O)Nc1ccc(-c2nnc(SCC(=O)Nc3cccc(C)c3)o2)cc1	24.7	–	45.8	38.9	28	28.6	25.4	22.6	29.8	28.6	–	–	–	–	–	–
O=C1c2ccccc2N=C(c2cc3c(cc2Cl)Sc2nccn2S3(=O)=O)OS(=O)(=O)N1c1ccccc1	–	> 100	46.1	44.5	42.6	> 100	> 100	> 100	> 100	–	–	–	–	–	–	–
CCCNC1=C2C[C@@H](C)C[C@@H](OC)[C@@H](OC(=O)CCCN)[C@H](C)/C=C(\C)[C@@H](OC(N)=O)[C@H](OC)/C=C\C=C(/C)C(=O)NC(=CC1=O)C2=O	34.8	28.5	–	43.7	12.1	34.1	> 43.8	26.1	39.4	30.9	–	–	–	–	–	–
C=C1CC[C@@]2(C)[C@@H]([C@@H]1C)[C@H]1CC[C@@H]3[C@@]4(C)CC[C@H](O)C(C)(C)[C@@H]4CC[C@@]3(C)[C@]1(C)C[C@@H]2O	3.77	8.76	–	–	> 100	4.7	> 100	15.8	6.53	12.7	–	–	–	–	–	–
O=[N+]([O-])c1cc(Br)cc2cc(Cl)cnc12	24.2	> 100	92	> 100	> 100	> 100	32.8	> 100	> 100	–	–	–	–	–	–	–
CC(NC(=O)Cc1ccc(OP(=O)(OCc2ccc([N+](=O)[O-])o2)N(C)CCCCCl)cc1)c1ccc(OCC2CCCCC2)c(C(N)=O)c1 (stereo unspecified)	4.76	3.84	–	16	3.1	13.1	10.2	5.91	6.31	5.89	–	–	–	–	–	–
COC(CNC(=O)CNC(=O)c1ccc(C(F)(F)F)cc1)OC	> 100	> 100	> 100	> 100	> 100	> 100	> 100	> 100	–	> 100	–	–	–	–	–	–
CN(C)CCCNC(=O)N/N=C/c1ccc(O)cc1	> 100	> 100	> 100	> 100	> 100	> 100	> 100	> 100	–	> 100	–	–	–	–	–	–
CC[C@H](C)[C@H](NC(=O)N(CCC#N)CCN(CCN(C(=O)N[C@@H](Cc1ccccc1)C(=O)OC)c1ccccc1)C(=O)N[C@H](C(=O)OC)C(C)C)C(=O)OC	45.9	47.2	43.1	65.4	52.6	–	64.8	39.7	62	43.4	–	–	–	–	–	–
O=C1CC(c2ccc(Cl)cc2)C2(C(=O)NC(=S)NC2=O)C(c2ccc(Cl)cc2)C1 (stereo unspecified)	–	74.1	30.2	–	30.6	30.5	44.7	40.1	37.9	36.1	–	–	–	–	–	–
C/C=C/CC(C(=O)OCC)(N(C)C(=O)OC(C)(C)C)S(=O)(=O)c1ccc(C)cc1 (stereo unspecified)	> 100	> 100	–	> 100	> 100	–	> 100	> 100	> 100	> 100	–	–	–	–	–	–
CC(=O)O[C@@H]1[C@H](OC2CCCCC2(c2ccccc2)c2ccccc2)O[N+]([O-])=CC12CCCCC2 (stereo partly specified)	41.4	39.4	29.4	59.2	33.7	32.2	31.6	31.2	–	–	–	–	–	–	–	–
Cc1ccc(Nc2c3c(c(C#N)c4nc5ccccc5n24)CCCC3)cc1	> 100	> 100	–	> 100	50.6	> 100	61	> 100	> 100	31.7	–	–	–	–	–	–

From PubChem BioAssay (NCI)
